The values below are quoted from earlier work in US8173570B2, “Hydroconversion processes employing multi-metallic catalysts and method for making thereof” (Chevron U.S.A. Inc., priority 2007, dated 2012).

The test system of this data set is rats. Conditions: acute toxicity, as single oral dose to rats (definition b56-b57).

Molecules are shown by their SMILES.

For the compound `O=CC(=O)O` [glyoxylic], the median lethal dose (LD50) was 3000 mg/kg.

Broadly, the LD50 is the dose at which mortality reaches 50%.
